The text below walks through data of ChEMBL document CHEMBL5584286, “Structure Determination of 1,3-Dioxolane-Containing Lipids from the Marine Sponge Leucetta sp. Using Chiral 1H NMR Analysis of Model Systems” (2024).

One experiment concerns Micrococcus luteus. The experiment can be described thus: Antibacterial activity against Micrococcus luteus KCTC 1915. Format: functional.
A further experiment relates to RAW264.7. The experiment can be described thus: Antiinflammatory activity in mouse RAW264.7 cells. Format: functional, cell-based.
Another experiment deals with Escherichia coli. In words: Antibacterial activity against Escherichia coli KCTC 2441. It is filed as functional.
The subject of another experiment is Salmonella typhimurium. The experiment can be described thus: Antibacterial activity against Salmonella typhimurium KCTC 2515. Format: functional, Salmonella enterica subsp. enterica serovar Typhimurium. As to conditions: Salmonella enterica.
In another experiment the test system is Klebsiella pneumoniae. In words: Antibacterial activity against Klebsiella pneumoniae KCTC 2690. It is filed as functional.
A further experiment deals with Staphylococcus aureus. The experiment can be described thus: Antibacterial activity against Staphylococcus aureus KCTC 1927. Format: functional.
For another experiment, the system named is Bacillus subtilis. In words: Antibacterial activity against Bacillus subtilis KCTC 1021. Format: functional.

SMILES strings stand for the structures. Activity calls are given as the source filed them. The calls are words filed in the database; no cut-off is given here.

Usually MIC stands for the least concentration at which growth counts as inhibited. Low values mean a more susceptible organism, high ones a less susceptible organism. On to `CCCCCCCCCCC/C=C\C=C\C(O)CC[C@H](C)[C@H]1OC[C@H](CO)O1` (stereo not given in full), for which the MIC against Micrococcus luteus, against Escherichia coli, with Salmonella typhimurium, with Klebsiella pneumoniae, against Staphylococcus aureus and in the experiment with Bacillus subtilis was over 128 µg/mL throughout. For the same molecule, in the experiment on RAW264.7, the result was inactive.
For `CCCCCCCC/C=C\C/C=C\CCC[C@H](C)[C@H]1OC[C@H](CO)O1`, the MIC with Micrococcus luteus, in the experiment with Escherichia coli, against Salmonella typhimurium, with Klebsiella pneumoniae, against Staphylococcus aureus and in the experiment with Bacillus subtilis was over 128 µg/mL each time. The result in the experiment on RAW264.7 was inactive.
In the case of `CCCCCCCCC/C=C\C/C=C\CCC[C@H](C)[C@H]1OC[C@H](CO)O1`, the MIC against Micrococcus luteus, in the experiment with Escherichia coli, in the experiment on Salmonella typhimurium, in the experiment with Klebsiella pneumoniae, against Staphylococcus aureus and in the experiment on Bacillus subtilis was over 128 µg/mL each time. In addition, the result in the experiment on RAW264.7 was inactive.
`CCCCCCCCCC/C=C\C/C=C\CCC[C@H](C)[C@H]1OC[C@H](CO)O1`: the MIC against Micrococcus luteus, with Escherichia coli, with Salmonella typhimurium, in the experiment on Klebsiella pneumoniae, in the experiment with Staphylococcus aureus and against Bacillus subtilis was over 128 µg/mL each time. The outcome in the experiment on RAW264.7 was inactive.
Take `CCCCCCCCCCC/C=C\CCC[C@H](C)[C@H]1OC[C@H](CO)O1`: the MIC in the experiment on Micrococcus luteus, in the experiment with Escherichia coli, in the experiment with Salmonella typhimurium, in the experiment with Klebsiella pneumoniae, in the experiment on Staphylococcus aureus and with Bacillus subtilis was over 128 µg/mL each time. The result in the experiment on RAW264.7 was inactive.
